“And” between values parts separate entries of the source, which are not always exact repeats. Equal entries are not always repeated.
Legend:
[1] = in vivo; details: rat, 1 mg/kg
Procedure: In addition, rat plasma concentrations of Compound A and Compound A in NP04 formulation were measured over time.

[2] = tested on: NCI-H69 xenograft model (small cell lung cancer); experiment: Efficacy in NCI-H69 xenograft model: tumor volumes and tumor growth inhibition; type: in vivo, mice
From the text: Efficacies of Compound A alone or formulated in nanoparticles were studied with NCI-H69 xenograft model (small cell lung cancer).

[3] = Log P of Compound A; type: physicochemical; details: approximate value
[4] = Compound A 25 mg/kg days 1 and 8, Day 5
[5] = Compound A 25 mg/kg days 1 and 8, Day 8
[6] = Compound A 25 mg/kg days 1 and 8, Day 16
[7] = Compound A 25 mg/kg days 1 and 8, Day 19
[8] = Compound A 50 mg/kg days 1 and 8, Day 5, 50 mg/kg
[9] = Compound A 50 mg/kg days 1 and 8, Day 8, 50 mg/kg
[10] = Compound A 50 mg/kg days 1 and 8, Day 11, 50 mg/kg
[11] = Compound A 50 mg/kg days 1 and 8, Day 16, 50 mg/kg
[12] = Compound A 50 mg/kg days 1 and 8, Day 19, 50 mg/kg
[13] = Compound A 50 mg/kg days 1 and 8, Day 22, 50 mg/kg
[14] = Compound A 150 mg/kg days 1 and 8, Day 5, 150 mg/kg
[15] = Compound A 150 mg/kg days 1 and 8, Day 8, 150 mg/kg
[16] = Compound A 150 mg/kg days 1 and 8, Day 11
[17] = Compound A 150 mg/kg days 1 and 8, Day 11, 150 mg/kg
[18] = Compound A 150 mg/kg days 1 and 8, Day 16, 150 mg/kg
[19] = Compound A 150 mg/kg days 1 and 8, Day 19, 150 mg/kg
[20] = Compound A 150 mg/kg days 1 and 8, Day 22, 150 mg/kg

**Q.** Which results are given for CCc1c2c(nc3ccc(OC(=O)N4CCC(CCn5ccc6cc(-n7c(O)nnc7-c7cc(C(C)C)c(O)cc7O)ccc65)CC4)cc13)-c1cc3c(c(=O)n1C2)COC(=O)[C@]3(O)CC [Compound A, (S)-4,11-diethyl-4-hydroxy-3,14-dioxo-3,4,12,14-tetrahydro-1H-pyrano[3′,4′:6,7]indolizino[1,2-b]quinolin-9-yl 4-(2-(5-(3-(2,4-dihydroxy-5-isopropylphenyl)-5-hydroxy-4H-1,2,4-triazol-4-yl)-1H-indol-1-yl)ethyl)piperidine-1-carboxylate]?
**A.** AUC(0-inf) [1]: 3.93 µM·h; AUC(0-t) [1]: 3.93 µM·h; Cmax [1]: 11.8 µM; Vd [1]: 0.0786 L/kg; clearance [1]: 4.82 mL/min/kg; half-life [1]: 59.1 min; TV Mean ([2]; Compound A 25 mg/kg days 1 and 8, Day 1): 273.4 mm3; TGI % [2, 4]: 2.8%; TV Mean [2, 4]: 390.6 mm3; TGI % [2, 5]: 24.9%; TV Mean [2, 5]: 423.8 mm3; TV Mean ([2]; Compound A 25 mg/kg days 1 and 8, Day 11): 383.2 mm3; TGI % ([2]; Compound A 25 mg/kg days 1 and 8, Day 11, 25 mg/kg): 47%; TGI % [2, 6]: 69.3%; TV Mean [2, 6]: 345.4 mm3; TGI % [2, 7]: 72.2%; TV Mean [2, 7]: 387.4 mm3; TV Mean ([2]; Compound A 25 mg/kg days 1 and 8, Day 22): 510.4 mm3; TGI % ([2]; Compound A 25 mg/kg days 1 and 8, Day 22, 25 mg/kg): 70%; TV Mean ([2]; Compound A 25 mg/kg days 1 and 8, Day 26): 654.4 mm3; TV Mean ([2]; Compound A 25 mg/kg days 1 and 8, Day 31): 866.4 mm3; TV Mean ([2]; Compound A 50 mg/kg days 1 and 8, Day 1): 273.3 mm3; TV individual animal ([2]; Compound A 50 mg/kg days 1 and 8, Day 1, 50 mg/kg): 222 mm3 and 255 mm3; TV Mean ([2]; Compound A 50 mg/kg days 1 and 8, Day 5): 360.1 mm3; TGI % [2, 8]: 10.42% and 10.4%; TV individual animal [2, 8]: 293 mm3; TV Mean ([2]; Compound A 50 mg/kg days 1 and 8, Day 8): 377.9 mm3; TGI % [2, 9]: 33.02% and 33%; TV individual animal [2, 9]: 336 mm3; TV Mean ([2]; Compound A 50 mg/kg days 1 and 8, Day 11): 267.8 mm3; TGI % [2, 10]: 62.98% and 63%; TV individual animal [2, 10]: 202 mm3; TV Mean ([2]; Compound A 50 mg/kg days 1 and 8, Day 16): 166.4 mm3; TGI % [2, 11]: 85.23% and 85.2%; TV individual animal [2, 11]: 136 mm3; TV Mean ([2]; Compound A 50 mg/kg days 1 and 8, Day 19): 116.6 mm3; TGI % [2, 12]: 91.64% and 91.6%; TV individual animal [2, 12]: 103 mm3; TV Mean ([2]; Compound A 50 mg/kg days 1 and 8, Day 22): 125.6 mm3; TGI % [2, 13]: 92.63% and 92.6%; TV individual animal [2, 13]: 91 mm3; TV Mean ([2]; Compound A 50 mg/kg days 1 and 8, Day 26): 165.7 mm3; TV individual animal ([2]; Compound A 50 mg/kg days 1 and 8, Day 26, 50 mg/kg): 116 mm3; TV Mean ([2]; Compound A 50 mg/kg days 1 and 8, Day 31): 318.9 mm3; TV individual animal ([2]; Compound A 50 mg/kg days 1 and 8, Day 31, 50 mg/kg): 256 mm3; TV Mean ([2]; Compound A 150 mg/kg days 1 and 8, Day 1): 273.6 mm^3; TV individual animal ([2]; Compound A 150 mg/kg days 1 and 8, Day 1, 150 mg/kg): 218 mm^3 and 266 mm^3 and 269 mm^3 and 295 mm^3 and 302 mm^3 and 335 mm^3 and 339 mm^3 and 353 mm^3 and 144 mm^3 and 215 mm^3; TV Mean ([2]; Compound A 150 mg/kg days 1 and 8, Day 5): 353 mm^3; TGI % [2, 14]: 12.19% and 12.9%; TV individual animal [2, 14]: 291 mm^3 and 370 mm^3 and 363 mm^3 and 417 mm^3 and 376 mm^3 and 367 mm^3 and 406 mm^3 and 568 mm^3 and 147 mm^3 and 225 mm^3; TV Mean ([2]; Compound A 150 mg/kg days 1 and 8, Day 8): 343.8 mm^3; TGI % [2, 15]: 39.06% and 39.1%; TV individual animal [2, 15]: 275 mm^3 and 362 mm^3 and 281 mm^3 and 413 mm^3 and 354 mm^3 and 393 mm^3 and 397 mm^3 and 595 mm^3 and 168 mm^3 and 200 mm^3; TGI % [2, 16]: 65.44%; TV Mean [2, 16]: 250 mm^3; TGI % [2, 17]: 65.4%; TV individual animal [2, 17]: 189 mm^3 and 236 mm^3 and 217 mm^3 and 318 mm^3 and 264 mm^3 and 322 mm^3 and 285 mm^3 and 436 mm^3 and 99 mm^3 and 134 mm^3; TV Mean ([2]; Compound A 150 mg/kg days 1 and 8, Day 16): 109.7 mm^3; TGI % [2, 18]: 90.26% and 90.3%; TV individual animal [2, 18]: 89 mm^3 and 108 mm^3 and 90 mm^3 and 132 mm^3 and 123 mm^3 and 138 mm^3 and 135 mm^3 and 173 mm^3 and 46 mm^3 and 63 mm^3; TV Mean ([2]; Compound A 150 mg/kg days 1 and 8, Day 19): 77.9 mm^3; TGI % [2, 19]: 94.41% and 94.4%; TV individual animal [2, 19]: 55 mm^3 and 100 mm^3 and 85 mm^3 and 95 mm^3 and 74 mm^3 and 121 mm^3 and 39 mm^3 and 135 mm^3 and 33 mm^3 and 42 mm^3; TV Mean ([2]; Compound A 150 mg/kg days 1 and 8, Day 22): 63.5 mm^3; TGI % [2, 20]: 96.27% and 96.3%; TV individual animal [2, 20]: 46 mm^3 and 64 mm^3 and 72 mm^3 and 85 mm^3 and 66 mm^3 and 89 mm^3 and 71 mm^3 and 68 mm^3 and 27 mm^3 and 47 mm^3; TV Mean ([2]; Compound A 150 mg/kg days 1 and 8, Day 26): 51.8 mm^3; TV individual animal ([2]; Compound A 150 mg/kg days 1 and 8, Day 26, 150 mg/kg): 45 mm^3 and 52 mm^3 and 68 mm^3 (2×) and 61 mm^3 and 83 mm^3 and 77 mm^3 and 41 mm^3 and 4 mm^3 and 19 mm^3; TV Mean ([2]; Compound A 150 mg/kg days 1 and 8, Day 31): 13.5 mm^3; TV individual animal ([2]; Compound A 150 mg/kg days 1 and 8, Day 31, 150 mg/kg): 11 mm^3 and 17 mm^3 and 25 mm^3 and 6 mm^3 and 3 mm^3 and 44 mm^3 and 2 mm^3 and 27 mm^3 and 0 mm^3 (2×); logP [3]: ~6.7

Reference: patent US20200237746A1, “HSP90 TARGETED CONJUGATES AND PARTICLE FORMULATIONS THEREOF” (TARVEDA THERAPEUTICS, INC., priority 2017, published 2020)
